Here are results for one substance from US11623008B2, “Excipient compositions for mucoadhesive pharmaceutical compositions including a synergistic combination of amylopectin, pullulan, hyaluronic acid, and xyloglucan” (Professional Compounding Centers of America (PCCA), priority 2014, dated 2023).

Data set [1] deals with EpiVaginal tissue model, human vaginal mucosa. The data set is described as follows: Safety and toxicological profile on human vaginal mucosa (MTT cell viability). The conditions noted are these: Triton X-100 at 1%. Format: cell-based. As for the experimental part:
This study was conducted to evaluate the safety and toxicological profile of disclosed excipient compositions in comparison to Triton X-100 (positive control) by employing the EpiVaginal™ tissue model, developed by the MatTek Corporation (Ashland, Mass., USA), which is a highly differentiated 3D model of the human vaginal mucosa. The EpiVaginal™ multi-layered tissue model comprises normal, human-derived vaginal-ectocervical (VEC) epithelial and dendritic cells (DC), cultured and differentiated to resemble the growth and morphological characteristics of the human vaginal mucosa. Triton X-100 is a non-ionic surfactant that can be used as a solubilizer, stabilizer, and emulsifier.
Methodology: Following tissue preparation, within a 6-well plate, 100 μL of disclosed excipient composition at 100% and Triton X-100 at 1% were applied onto separate EpiVaginal tissue samples and left to incubate at 37° C. for 45 minutes to 20 hours. Following incubation, tissues were rinsed twice with Phosphate Buffer Saline (PBS) and excess liquid was removed. A 300 μL of 3-[4,5-dimethylthiazol-2yl]-2,5-diphenyltetrazolium bromide (MTT) solution was then added to the tissues and left to incubate for 3 hours. MTT served as an indicator of cell viability. Succinate dehydrogenase enzymes within the mitochondria of viable cells have the ability to reduce soluble yellow tetrazonium salt of MTT to an insoluble purple formazan derivative. Tissues were then immersed in 2 mL of extraction solution and sealed in a plastic bag to soak overnight at room temperature. Excess liquid was decanted the following day, the remaining extractant solution was agitated, and 200 μL aliquot of each extract was evaluated with a Molecular Device SpectraMax® M5 Microplate Reader. This device quantifies the absorbance potential of the samples at 570 nm, a wavelength absorbed by the formazan derivative.

Data set [2] concerns EpiOral tissue model (ORL-200), human oral mucosa. The experiment in a line: Safety and toxicological profile on human oral mucosa (MTT cell viability). It is filed as cell-based. The conditions noted are these: excipient composition at 50%, Triton X-100 at 1%; for mean percent viability: mean of two experiments. As for the experimental part: This study was conducted to evaluate the safety and toxicological profile of disclosed excipient compositions in comparison to Triton X-100 (positive control) and distilled water (negative control), using a 3D model of the human oral mucosa. Triton X-100 is a non-ionic surfactant, which is not approved for oral use.
Methodology: The materials used in this study include EpiOral™ tissue samples, disclosed excipient composition (Lot: 6481454) at 50% (diluted in distilled water), and Triton X-100 at 1%. The EpiOral™ tissue model (ORL-200) comprises of normal human-derived non-keratinized oral epithelial cells, cultured and differentiated to resemble the native buccal tissue of the human oral mucosa. Following tissue preparation, 40 μL of disclosed excipient composition at 50% and Triton X-100 at 1% were applied onto separate EpiOral tissue samples and left to incubate at 37° C. Incubation intervals were 1, 4.5, and 20 hours. Application of distilled water on an EpiOral tissue served as the negative control. After the allotted exposure time, each tissue was rinsed twice with phosphate buffer saline (PBS) and excess liquid was removed. Afterwards, 300 μL of 3-[4,5-dimethylthiazol-2yl]-2,5-diphenyltetrazolium bromide (MTT) solution was added to the EpiOral tissues and left to incubate for 3 hours. MTT was used as an indicator of cell viability. Succinate dehydrogenase enzymes within the mitochondria of viable cells have the ability to reduce soluble yellow tetrazonium salt of MTT to an insoluble purple formazan derivative. After 3 hours of exposure to MTT, the tissues were immersed in 2 mL of extraction solution, sealed in a plastic bag, and stored at room temperature overnight. The excess liquid was then decanted and the remaining extractant solution was agitated. A 200 μL aliquot of each extract was evaluated using a Molecular Device SpectraMax® M5 Microplate Reader. This device quantifies the absorbance potential of the samples at 570 nm, a wavelength absorbed by reduced MTT. This experiment was repeated two months following initial testing using identical methodology and the Electrolyte Saliva Gel (PCCA Formula #11150), which consists of sodium chloride, potassium chloride, calcium chloride, and a flavor extract in disclosed excipient composition (Lot: 6481454) at 50% (diluted in distilled water).
Results and Discussion: Toxicological profiles for disclosed excipient composition and the positive control, Triton X-100 at 1%, were compared by examining absorbancy potentials of the extracts collected from both experiments. […] Mean percent cell viabilities were calculated for the two experiments and are illustrated in FIG. 3. […]

As to Triton X-100, the percent cell viability was 97% in data set [1] (45 minutes exposure) and 26% in data set [1] (2 hours exposure). Further, the “ET50, time when percent cell viability is reduced to 50%” value in data set [1] (estimated from semi-log plot) was 86.4 min. Also, the mean percent viability in data set [2] (1 hour exposure) came to 117%; in data set [2] (4.5 hours exposure), 30%; in data set [2] (20 hours exposure), 6%. In addition, the “ET50, the time at which percent viability would be 50%” value in data set [2] (estimated from semi-log plot) was 3.2 h.
